Experimental data published in patent EP4781990A1, “PHARMACEUTICAL COMPOSITION CONTAINING HETEROARYL OXYNAPHTHALENE COMPOUND, PREPARATION METHOD THEREFOR, AND USE THEREOF” (Shanghai Runshi Medical Technology Co., Ltd, priority 2023, dated 2025).

How the values were obtained:
Type in all cases: physicochemical
[1] = Water sorption and desorption experiment (DVS, hygroscopicity); conditions: 40-80% relative humidity, 25 °C
Protocol: In the following examples, the related analysis and detection conditions are as follows: 1. X-ray powder diffractometer (XRPD) • Instrument: BRUKER D8 Advance X-ray powder diffractometer, Germany. • Conditions: Cu-Kα radiation (λ = 1.5418 Å), tube voltage: 40 kV, tube current: 40 mA, 2θ scanning range: 3-40°, scanning step size: 0.02° (2θ), scanning speed: 10 s/step, sample tray: a zero background sample tray. • Method: a sample was spread on a zero background monocrystalline silicon sample tray and was gently pressed using a medicine spoon to be flat for measurement. 2. Chloride • Detection instrument: Dionex ICS-900 ion chromatograph • Column: Dionex Ion Pac AS11-HC anion chromatographic column (specification: 4 × 250 mm) • Determination method: 10 µL of each of the control solution and the sample solution was measured precisely and injected into the ion chromatograph, the chromatogram was recorded, and the chloride ion content was calculated based on peak area according to the external standard method. 3. Dynamic vapor sorption/desorption (DVS) analysis Instrument: DVS Intrinsic plus (SMS, UK). Method: a sample was placed in a tared sample basket, the weight of the sample was automatically measured, and the sample was analyzed according to the parameters in the table below.
The samples obtained in Preparation Example 2 and Preparation Example 3 were investigated for moisture sorption and desorption under the relative humidity of 40-80% using a dynamic vapor sorption (DVS) instrument at a temperature of 25 °C to determine the hygroscopicity of various salt forms. Table 6 Hygroscopicity experimental results of different salt forms of compound (I) (DVS, 40-80%)

[2] = Grinding stability experiment of compound (A); conditions: XRPD
[3] = Solid stability experiment of compound (A); conditions: for Crystalline form: XRPD

| Compound | Hygroscopicity (%) [1] | Crystalline form change after grinding with organic solvent ([2]; ground after dropwise addition of methanol, ethanol, acetone, acetonitrile, or ethyl acetate) | Crystalline form change after grinding ([2]; mechanically ground using a mortar for 2 min and 5 min) | Purity/% ([3]; 40 °C/75% RH (open), 7 days) | Crystalline form ([3]; 40 °C/75% RH (open), 7 days) | Purity/% ([3]; 60 °C (sealed), 7 days) | Crystalline form ([3]; 60 °C (sealed), 7 days) | Purity/% ([3]; Initial state, 0 days) | Crystalline form ([3]; Initial state, 0 days) | Crystalline form ([3]; room temperature/92.5% RH (open), 10 days) | Hygroscopicity (in words) [1] |
| --- | --- | --- | --- | --- | --- | --- | --- | --- | --- | --- | --- |
| Fumarate | 2.11% | – | – | – | – | – | – | – | – | – | – |
| CNC(=O)c1cccc2cc(Oc3ccnc(NC(=O)c4ccc(N5C[C@@H](C)N[C@@H](C)C5)cc4)c3)ccc12 [Compound (A)] | 0.65% | no crystalline form change occurred | no crystalline form change occurred | 99.86% | Crystalline form I | 99.85% | Crystalline form I | 99.85% | Crystalline form I | Crystalline form I | slightly hygroscopic |
| Phosphate | 3.75% | – | – | – | – | – | – | – | – | – | – |
